Patent US10392667B2, “Methods and devices for predicting treatment efficacy of fulvestrant in cancer patients” (Medical Prognosis Institute A/S, priority 2013, dated 2019)
Read-outs that look alike come from different tables or passages of the source.

Tests used:
[1] = test system: NCI60 cell lines; conditions: mean over all NCI60 cell lines (FIG. 8); cited from earlier work
[2] = test system: ER-positive, locally advanced breast cancer; assay: NEWEST Phase II trial: tumor response by 3D ultrasound after 16 weeks of neoadjuvant fulvestrant; assay type: in vivo, human; conditions: for overall response rate (CR+PR): 16 weeks
Method: NEWEST (Neoadjuvant Endocrine Therapy for Women with Estrogen-Sensitive Tumors; 9238IL/0065) was a randomized, open-label, multicenter, Phase II study involving postmenopausal women with newly diagnosed, ER-positive, locally advanced breast cancer who had received no prior breast cancer treatment ([…]). Eligible patients were randomized 1:1 to receive either fulvestrant 500 mg or 250 mg for 16 weeks preceding surgery. Fulvestrant 500 mg was given as two 5 ml intramuscular injections on days 0, 14, 28 and every 28 days thereafter for 16 weeks. Fulvestrant 250 mg was given as one 5 ml injection on days 0, 28 and every 28 days thereafter for 16 weeks (Kuter et al., Breast Cancer Res. Treat., 133:237-246, 2012).
A total of 211 patients were enrolled in NEWEST. Of these, 173 completed the study and 121 met all protocol criteria. Fresh frozen pre-treatment samples with sufficient RNA (100 ng) was available from 44 patients. Two samples were discarded due to array quality, leaving 42 patients. Of these 42 patients, 22 were in the 500 mg treatment group and 20 were in the 250 mg treatment group.
During the 16-week treatment phase, patients underwent clinical breast examination every 4 weeks. Tumor volume was measured by 3D ultrasound at baseline, week 4, and after 16 weeks of treatment before definitive surgery. Tumor response was defined as complete response (CR, disappearance of all lesions), partial response (PR, at least 65% reduction in tumor volume by 3D ultrasound), disease progression (PD, at least 73% increase in tumor volume), or stable disease (SD, neither partial response nor disease progression). The reduction for partial response was in relation to baseline but for progressive disease was in relation to the smallest tumor volume at any preceding assessment. Objective responders were those patients with a complete response or partial response.

[3] = test system: Ki67; conditions: after 4 weeks of treatment, patients, cited from earlier work
[4] = test system: early breast cancer; assay: Trial 223: neoadjuvant anastrozole, response according to RECIST; assay type: in vivo, human; conditions: patients with outcome information
Method: Trial 223 (Smith et al., J. Clin. Oncol., 25:3816-3822, 2007) was a placebo-controlled trial of neoadjuvant anastrozole alone or with gefitinib in early breast cancer. We used pre-treatment samples from patients from arm B and C: anastrozole 1 mg/d for the duration of the 16 week period plus placebo 1 tablet/d orally for 2 weeks. Patients in arm B were followed by gefitinib 250 mg/d orally for 14 weeks whereas patients in arm C continued with placebo for 14 weeks. We received pre-treatment biopsy material from 21 patients in arms B and C with Ki67 measurements after 2 weeks. We received pre-treatment biopsy material from 16 patients in arm C with outcome information according to guidelines set forth in Response Evaluation Criteria in Solid Tumors (RECIST).
The prediction score of the invention (e.g., prediction score for fulvestrant) was tested for the ability to predict response to aromatase inhibition in a small cohort of 21 patients treated with neoadjuvant anastrozole in a similar protocol to that used to test fulvestrant. […] In addition there was no correlation between prediction score and change in Ki67 produced after 2 weeks of anastrozole treatment (N=21, P=0.9).

[5] = 250 mg fulvestrant, patients with array data
[6] = 500 mg fulvestrant for 16 weeks, patients with array data

CN(C)CCOc1ccc(/C(=C(/CCCl)c2ccccc2)c2ccccc2)cc1 [toremifene]
GI50 [1]: 13 µM

CC/C(=C(\c1ccccc1)c1ccc(OCCN(C)C)cc1)c1ccccc1 [tamoxifen]
GI50 [1]: 4.3 µM

C[C@]12CC[C@@H]3c4ccc(O)cc4C[C@@H](CCCCCCCCC[S+]([O-])CCCC(F)(F)C(F)(F)F)[C@H]3[C@@H]1CC[C@@H]2O (stereo partly drawn) [Fulvestrant, fulvestrant]
overall response rate (CR+PR) ([2]; 250 mg fulvestrant, 19 patients with array data): 26%
number of partial responders [2, 5]: 5
number of patients with stable disease [2, 5]: 13
number of progressive disease patients [2, 5]: 1
number of non-responders (SD+PD) [2, 6]: 9
number of responders (PR) [2, 6]: 11
overall response rate (CR+PR) ([2]; 500 mg fulvestrant): 50%
GI50 [1]: 63 µM
average reduction in Ki67 ([3]; 250 mg dose): 47%
average reduction in Ki67 ([3]; 500 mg dose): 79%

CC(C)(C#N)c1cc(Cn2cncn2)cc(C(C)(C)C#N)c1 [anastrozole]
number of nonresponders [4]: Seven
number of responders [4]: Nine

O=C(c1ccc(OCCN2CCCCC2)cc1)c1c(-c2ccc(O)cc2)sc2cc(O)ccc12 [raloxifene]
GI50 [1]: 8.4 µM
